Legend:
[1] = test system: human umbilical vein endothelial cells (HUVEC); assay: Inhibition of HUVEC net structure (tube) formation on ECM/Matrigel; assay type: cell-based; conditions: group without drug = 100%, read-out: 50% inhibiting concentration (IC50) for inhibiting tube formation
Procedure: The lyophilized powder was dissolved in an appropriate solvent and an in vitro anti-angiogenesis was performed thereto. The ability of the extract for inhibiting net structure formation of human umbilical vein endothelial cells (HUVEC) in extracellular matrix (ECM) or growth factor reduced Matrigel was analyzed, and the forming level of the tube structure thereof was integrated to be used as an indicator for quantification.
Furthermore, by using Matrigel (BD, Cat. No. 356231) as a matrix and observing the state of human umbilical vein endothelial cells (HUVECs) constructing a net structure on the matrix, state of JC-5 (yatein) inhibiting the formation of HUVEC net structure was analyzed. […] The total length of the net structure was calculated through NIS element image analysis software (Nikon; Agent: Lin Trading Co., Ltd. Taiwan), wherein by using the total length of a net structure formed from a group without a drug addition as 100%, the state of JC-5 inhibiting the formation of HUVEC net structure was analyzed.
By using Matrigel (BD, Cat. No. 356231) as a matrix and observing the state of human umbilical vein endothelial cells (HUVECs) constructing a net structure on the matrix, the states of the crude extract (CBT-143-S) and the fractional extract (CBT-143-S-F6F7) inhibiting the formation of HUVEC net structure were analyzed. […]

[2] = test system: bFGF-induced corneal neovascularization; assay: Rat corneal neovascularization (corneal pocket) assay; assay type: in vivo, Sprague Dawley rats; conditions: pellet with 60 ng of bFGF plus 1 ug JC-5, day 7
Procedure: Pellets made of the hydron polymer (polyHEME) and a test drug or DMSO were implanted on the corneal surface of rats, and vascular formation thereof was observed.
A hydron polymer (polyHEME) was dissolved in absolute ethanol (12% w/v) in a rotator at 37° C. overnight, and then stored at room temperature before pellet making. Each pellet for the corneal pocket assay contained 60 ng of bFGF, or 1 ug JC-5 and 20 ug of sucralfate in 3 uL of casting gel, which was constituted as a 50:50 (vol/vol) mixture of hydron gel and factor-sucralfate-PBS. The casting gel was promptly pipetted onto an autoclaved, sterilized 20×20-mm piece of nylon mesh with an approximate pore size of 2×2 mm. The pellets were prepared the day before corneal surgery in a laminar flow hood under sterile conditions. Subsequently, the fibers of the mesh were pulled apart, and uniformly sized pellets of 2×2×0.4 mm^3 were selected for implantation. All procedures were performed in sterile conditions. Such pellets can be stored frozen at −20° C. for several days without loss of bioactivity. […] The eyes were exposed, and the maximum vessel length (VL) of the neovascularization zone, extending from the base of the limbal vascular plexus toward the pellet, was measured. […] The contiguous circumferential zone of neovascularization (CN) was measured in clock hours with a 360° reticule (where 30° of arc equals 1 clock hour).

laser-induced CNV = assay: Laser-induced choroidal neovascularization (CNV) assay; assay type: in vivo, brown Norway rats; conditions: 1 μg/2 ul in DMSO per eye, fluorescein angiography
From the text: Male rats (brown Norway rats, purchased from BioLASCO Co., Taiwan) were used. CNV lesions were induced in rat eyes by laser photocoagulation. Briefly, after the rats were anesthetized, their pupils were dilated with 1% tropicamide. A piece of 18×24 mm^2 standard cover glass served as a contact lens for application of photocoagulation. Argon laser irradiation was delivered through a slit lamp. Laser parameters were set as follows: spot size of 50 μm; power of 120 mW; and exposure duration of 0.1 second. An attempt was made to break Bruch's membrane, as clinically evidenced by central bubble formation, with or without intraretinal or choroidal hemorrhage. Four to six lesions were created between the major retinal vessels in each fundus. One day prior to laser treatment, animals received bilateral intravitreal injection of 2 ul JC-5 (1 ug/eye, N=6) or 2 ul vehicle (DMSO, N=6). Fourteen days later, a self-retaining eye speculum was placed in the eye to facilitate administration. […] Rats were analyzed under general anesthesia after dilation of the pupil and subsequent intraperitoneal injection of 0.5 ml of 2.5% fluorescein sodium (Alcon, […], Germany). […] For quantitative analysis of fluorescein leakage, the area of fluorescein leakage, determined as area of hyperfluorescence in which no normal retinal blood vessels were observed, was measured for each burn using ImageJ software (NIH, USA).

[3] = test system: growth factor (FGFb+VEGF)-induced angiogenesis; assay: Matrigel plugs assay, in vivo growth factor-induced angiogenesis; parameters: species or system BALB/c mice; conditions: orally administered every day 30 mg/kg/day, 14 days
[4] = test system: Hep-3B conditional medium (CM)-induced angiogenesis; assay: Matrigel plugs assay, in vivo Hep-3B conditional medium-induced angiogenesis; parameters: species or system BALB/c mice; conditions: orally administered every day 30 mg/kg/day, 14 days
Procedure: Through a subcutaneous injection to BALB/c mice to form Matrigel plugs, an evaluation was made of whether a test substance was capable of inhibiting angiogenesis induced by vascular endothelial growth factor or Hep-3B conditional medium (CM).
Matrigel is extracted from the Engelbreth-Holm-Swarm (EHS) mouse sarcoma and contains rich extracellular matrix proteins and contains various factors need by vascular growth. In a condition of room temperature and 37° C., Matrigel is capable of polymerize as a solid gel from, and can provide a better growth environment for vascular endothelial cells.
Matrigel and vascular endothelial growth factors (FGFb+VEGF) or Hep-3B conditional medium (CM) were mixed, and then a test substance was added thereto and mixed. […]
(c) Hemoglobin content in Matrigel was quantified by a QuantiChrom™ Hemoglobin Assay Kit (DIHB-250) to evaluate the amount of neo-blood vessels in Matrigel.
After subcutaneous injection to BALB/c mice for 14 days, the Matrigel plugs in the subcutaneous tissue of the mouse was taken out and equal amount of dispase was added therein to form a mixture and reacted at 37° C. for 16 hours to dissolve intercellular substance gel. […] After the supernatant was reacted with the reagent for 5 minutes, the optical density (O.D.) at 400 nm therefrom was determined. […]

PBMCs = assay: Toxicity test for normal cells, PBMCs (Alamarblue cell viability assay); assay type: cell-based; conditions: PBMC, 72 hours incubation, read-out: IC50 of a test drug for PBMCs
Procedure: In order to investigate whether the inhibiting effects mentioned above of the crude extract (CBT-143-S) and the fractional extract (CBT-143-S-F6F7) are due to the toxicity thereof or not, cell viability assay for normal cells, PBMCs, and growth inhibition assays for HUVECs were performed to the crude extract (CBT-143-S) and the fractional extract (CBT-143-S-F6F7), and a commercial clinical drug, sorafenib, were used for comparison as a reference.
Alamarblue is a plant dye that is usually blue. The dye decomposes during cell proliferation and reduces from blue to pink, and a rise in O.D. at 570 nm can be determined. Conversely, the more dead cells there are, the lower the O.D. value is determined to be.
PBMC cells (1×10^5 cells/well) were inoculated in a 96-well plate, and the crude extract (CBT-143-S) and the fractional extract (CBT-143-S-F6F7) samples, etc. with different concentrations (300, 100, 30, 10, 3 and 1 μg/mL) were added to the plate. After incubating for 72 hours, Alamarblue was added to the plate and incubated at 37° C. for 24 hours, and then the O.D. at 570 nm/600 nm thereof was determined by an ELISA reader. After that, the obtained O.D. values were substituted into the formal calculation as follows: […]

Compound	IC50 [1] [µM]	neovascular response in implanted cornea [2]	CNV lesions areas compared to DMSO-treated vehicles (laser-induced CNV; intravitreal, day 7 and day 14)	fluorescent dye uptake and extent of CNV (laser-induced CNV)	hemoglobin concentration of the Matrigel plug [3] [mg/dL]	hemoglobin concentration of the Matrigel plug [4] [mg/dL]	IC50 (PBMCs) [µM]
COc1cc(C[C@H]2C(=O)OC[C@@H]2Cc2ccc3c(c2)OCO3)cc(OC)c1OC [JC-5, yatein]	0.335	inhibited	significantly decreased	less	–	–	–
CNC(=O)c1cc(Oc2ccc(NC(=O)Nc3ccc(Cl)c(C(F)(F)F)c3)cc2)ccn1 [Sorafenib, sorafenib]	–	–	–	–	27.09 ± 5.88	25.05 ± 17.59	10.8 ± 0.95
